# Measurements as given in patent US8664244B2, “Compounds as c-Met kinase inhibitors” (Advenchen Pharmaceuticals, LLC, priority 2010, dated 2014).
# Where two headings read alike, the source gives them in different places.
# What was measured:
# Format in all cases: cell-based
# A549 = assay: Tumor cell line inhibition, A549
# PC-3M = assay: Tumor cell line inhibition, PC-3M; settings: PC-3M tumor cell line
# SHG44 = assay: Tumor cell line inhibition, SHG44
SMILES,IC50 (A549) [µM],IC50 (PC-3M) [µM],IC50 (SHG44) [µM],IC50 (A549; Homo sapiens) [µM],IC50 (PC-3M; Homo sapiens) [µM],IC50 (SHG44; SHG-44) [µM]
"COc1ccc(COC(=O)NC2(COc3cc4nccc(Oc5ccc(NC(=O)C6(C(=O)Nc7ccc(F)cc7)CC6)cc5F)c4cc3OC)CC2)cc1 [Example 1, 4-methoxybenzyl-1-((4-(2-fluoro-4-(1-(4-fluorophenylcarbamoyl)cyclopropanecarboxamido)-phenoxy)-6-methoxyquinolin-7-yloxy)methyl)cyclopropylcarbamate]",3.32,35.6,5.74,,,
"COc1cc2c(Oc3ccc(N(C(=O)C4(C(N)=O)CC4)c4ccc(F)cc4)cc3F)ccnc2cc1OCC1(NC2CCOCC2)CC1 [Example 3, N-(3-fluoro-4-(6-methoxy-7-((1-(tetrahydro-2H-pyran-4-ylamino)cyclopropyl)methoxy)quinolin-4-yloxy)phenyl)-N-(4-fluorophenyl)cyclopropane-1,1-dicarboxamide]",,,,0.0407,4.89,0.199
"COc1ccc(COC(=O)NC2(COc3cc4nccc(Oc5ccc(NC(=O)C6(C(=O)Nc7ccc(F)c(F)c7)CC6)c(F)c5)c4cc3OC)CC2)cc1 [Example 7, 4-methoxybenzyl 1-((4-(4-(1-(3,4-difluorophenylcarbamoyl)cyclopropanecarboxamido)-3-fluoro-phenoxy)-6-methoxyquinolin-7-yloxy)methyl)cyclopropylcarbamate]",,,,36,51,39.1
"COc1cc2c(Oc3ccc(N(C(=O)C4(C(N)=O)CC4)c4ccc(F)c(F)c4)c(F)c3)ccnc2cc1OCC1(NC2CCOCC2)CC1 [Example 9, N-(3,4-difluorophenyl)-N-(2-fluoro-4-(6-methoxy-7-((1-(tetrahydro-2H-pyran-4-ylamino)-cyclopropyl)methoxy)quinolin-4-yloxy)phenyl)cyclopropane-1,1-dicarboxamide]",,,,2.22,6.02,2.18
"COc1cc2c(Oc3ccc(N(C(=O)C4(C(N)=O)CC4)c4ccc(F)c(F)c4)c(F)c3)ccnc2cc1OCC1(NCC2CC2)CC1 [Example 11, N-(4-(7-((1-(cyclopropylmethylamino)cyclopropyl)methoxy)-6-methoxyquinolin-4-yloxy)-2-fluorophenyl)-N-(3,4-difluorophenyl)cyclopropane-1,1-dicarboxamide]",,,,0.0659,16.1,0.589
"COc1ccc(COC(=O)NC2(COc3cc4nccc(Oc5ccc(NC(=O)C6(C(=O)Nc7ccccc7)CC6)cc5F)c4cc3OC)CC2)cc1 [Example 13, 4-methoxybenzyl 1-((4-(4-(1-(phenylcarbamoyl)cyclopropanecarboxamido)-2-fluoro-phenoxy)-6-methoxyquinolin-7-yloxy)methyl)cyclopropylcarbamate]",,,,45.4,53.2,26
"COc1cc2c(Oc3ccc(N(C(=O)C4(C(N)=O)CC4)c4ccccc4)c(F)c3)ccnc2cc1OCC1(N)CC1 [Example 14, N-(4-(7-((1-aminocyclopropyl)methoxy)-6-methoxyquinolin-4-yloxy)-2-fluorophenyl)-N-(phenyl)cyclopropane-1,1-dicarboxamide]",,,,0.549,12.5,1.41
